Laboratory results published in PubChem BioAssay (NCI).
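How tested: cells in 96-well plates exposed to compound for 48 hours at five concentrations. The concentration for 50% growth inhibition is given as GI50. TGI marks complete inhibition of growth.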

Assays:
Assay in all cases: NCI anticancer screen, dose series, 48 h
[1] = tested on: KM12 colon
[2] = tested on: SN12C renal
[3] = tested on: MDA-MB-231 breast
[4] = tested on: RXF 393 renal
[5] = tested on: PC-3 prostate
[6] = tested on: HCC-2998 colon
[7] = tested on: NCI-H522 lung
[8] = tested on: NCI/ADR-RES ovarian
[9] = tested on: T-47D breast
[10] = tested on: A549 NSCLC
[11] = tested on: OVCAR-4 ovarian
[12] = tested on: DU-145 prostate
[13] = tested on: SW-620 colon
[14] = tested on: TK-10 renal
[15] = tested on: OVCAR-3 ovarian
[16] = tested on: A498 renal
[17] = tested on: NCI-H23 lung
[18] = tested on: HCT-116 colon
[19] = tested on: MALME-3M melanoma
[20] = tested on: HL-60(TB) leukemia
[21] = tested on: SK-MEL-2 melanoma
[22] = tested on: U251 CNS
[23] = tested on: UACC-257 melanoma
[24] = tested on: SK-MEL-28 melanoma
[25] = tested on: M14 melanoma
[26] = tested on: UO-31 renal
[27] = tested on: ACHN renal
[28] = tested on: EKVX NSCLC
[29] = tested on: MDA-MB-435
[30] = tested on: HOP-92 NSCLC
[31] = tested on: K-562 leukemia
[32] = tested on: SK-OV-3 ovarian
[33] = tested on: HT29 colon
[34] = tested on: 786-0 renal
[35] = tested on: MCF7 breast
[36] = tested on: HCT-15 colon
[37] = tested on: IGROV1 ovarian
[38] = tested on: OVCAR-5 ovarian
[39] = tested on: MOLT-4 leukemia
[40] = tested on: UACC-62 melanoma
[41] = tested on: SNB-19 CNS
[42] = tested on: HS 578T breast
[43] = tested on: CAKI-1 renal
[44] = tested on: NCI-H226 lung
[45] = tested on: SK-MEL-5 melanoma
[46] = tested on: COLO 205 colon
[47] = tested on: HOP-62 NSCLC
[48] = tested on: SF-539 CNS
[49] = tested on: SF-295 CNS
[50] = tested on: SF-268 CNS
[51] = tested on: SR leukemia
[52] = tested on: OVCAR-8 ovarian
[53] = tested on: RPMI-8226 leukemia
[54] = tested on: NCI-H460 lung
[55] = tested on: BT-549 breast
[56] = tested on: CCRF-CEM leukemia
[57] = tested on: SNB-75 CNS
[58] = tested on: LOX IMVI melanoma

O=C(Nc1ccc(Oc2cccc(Cl)c2)c(Cl)c1)c1cnccn1
GI50 [1]: 180 nM | TGI [1]: > 50000 nM | GI50 [2]: 2560 nM | TGI [2]: > 50000 nM | GI50 [3]: 452 nM | TGI [3]: > 40000 nM | GI50 [4]: 831 nM | TGI [4]: 3470 nM | GI50 [5]: 1060 nM | TGI [5]: > 50000 nM | GI50 [6]: 5310 nM | TGI [6]: > 36000 nM | GI50 [7]: 296 nM | TGI [7]: 2550 nM | GI50 [8]: 265 nM | TGI [8]: > 11800 nM | GI50 [9]: 460 nM | TGI [9]: > 50000 nM | GI50 [10]: 312 nM | TGI [10]: > 50000 nM | TGI [11]: > 50000 nM | GI50 [12]: 839 nM | TGI [12]: > 50000 nM | GI50 [13]: 216 nM | TGI [13]: > 50000 nM | GI50 [14]: 3010 nM | TGI [14]: > 50000 nM | GI50 [15]: 198 nM | TGI [15]: 1160 nM | GI50 [16]: 5850 nM | TGI [16]: 28200 nM | GI50 [17]: 903 nM | TGI [17]: > 50000 nM | GI50 [18]: 210 nM | TGI [18]: > 50000 nM | GI50 [19]: 1920 nM | TGI [19]: > 50000 nM | GI50 [20]: 556 nM | TGI [20]: 8950 nM | GI50 [21]: 352 nM | TGI [21]: > 50000 nM | GI50 [22]: 245 nM | TGI [22]: > 22900 nM | GI50 [23]: > 20000 nM | TGI [23]: > 50000 nM | GI50 [24]: 14100 nM | TGI [24]: > 50000 nM | GI50 [25]: 225 nM | TGI [25]: > 50000 nM | GI50 [26]: 1910 nM | TGI [26]: > 50000 nM | GI50 [27]: 3630 nM | TGI [27]: > 50000 nM | GI50 [28]: 771 nM | TGI [28]: > 50000 nM | GI50 [29]: 109 nM | TGI [29]: 290 nM | GI50 [30]: 673 nM | TGI [30]: > 32800 nM | GI50 [31]: 162 nM | TGI [31]: > 50000 nM | GI50 [32]: 11500 nM | TGI [32]: > 50000 nM | GI50 [33]: 168 nM | TGI [33]: > 20300 nM | GI50 [34]: 2160 nM | TGI [34]: > 50000 nM | GI50 [35]: 183 nM | TGI [35]: > 50000 nM | GI50 [36]: 171 nM | TGI [36]: > 50000 nM | GI50 [37]: 363 nM | TGI [37]: > 50000 nM | GI50 [38]: 1600 nM | TGI [38]: > 50000 nM | GI50 [39]: 371 nM | TGI [39]: > 50000 nM | GI50 [40]: 345 nM | TGI [40]: > 50000 nM | GI50 [41]: 338 nM | TGI [41]: > 50000 nM | GI50 [42]: 214 nM | TGI [42]: > 50000 nM | GI50 [43]: 844 nM | TGI [43]: > 50000 nM | GI50 [44]: 1730 nM | TGI [44]: > 29800 nM | GI50 [45]: 280 nM | TGI [45]: > 50000 nM | GI50 [46]: 208 nM | TGI [46]: 16200 nM | GI50 [47]: 368 nM | TGI [47]: > 50000 nM | GI50 [48]: 306 nM | TGI [48]: 1720 nM | GI50 [49]: 480 nM | TGI [49]: > 25100 nM | GI50 [50]: 1140 nM | TGI [50]: > 50000 nM | GI50 [51]: 145 nM | TGI [51]: > 50000 nM | GI50 [52]: 1410 nM | TGI [52]: > 50000 nM | GI50 [53]: 323 nM | TGI [53]: > 50000 nM | GI50 [54]: 245 nM | TGI [54]: > 50000 nM | GI50 [55]: 3310 nM | TGI [55]: > 50000 nM | GI50 [56]: 367 nM | TGI [56]: > 50000 nM | GI50 [57]: 258 nM | TGI [57]: 2330 nM | GI50 [58]: 275 nM | TGI [58]: > 50000 nM
